{
  "source": "patent US20140073634A1",
  "about": "(Institute For Applied Cancer Science/The University of …, priority 2012, published 2014)",
  "note": "Where a name gives a salt, the structure may show the parent alone.",
  "data": [
    {"test_system": "293T-HRE-GFP-luc cells", "test": "Cell-based reporter assay for IC50 determinations (HRE-luciferase, hypoxia)", "settings": "6 h, 6 hrs hypoxia (1% O2), luminescence", "summary_of_the_method": "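293T-HRE-GFP-luc cells were pre-incubated with serially diluted compounds for 30 min under normoxia, then held 6 hrs in hypoxia (1% O2, 37° C). HRE-driven luciferase read by Steadylite Plus luminescence; IC50 from four-parameter logistic fit.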", "units": {"IC50": "nM"}, "values": [
      {"smiles": "Cc1ccc(-c2nnc(-c3ccc(OC(F)(F)F)cc3)o2)c(=O)n1Cc1ccnc(N2CCN(C)CC2)c1", "note": "[Example 21, 6-methyl-1-((2-(4-methylpiperazin-1-yl)pyridin-4-yl)methyl)-3-(5-(4-(trifluoromethoxy)phenyl)-1,3,4-oxadiazol-2-yl)pyridin-2(1H)-one]", "IC50": "1000 to 10000"},
      {"smiles": "CN1CCN(c2cc(Cn3cc(-c4cc(-c5ccc(OC(F)(F)F)cc5)no4)ccc3=O)ccn2)CC1", "note": "[Example 97b, 1-((2-(4-methylpiperazin-1-yl)pyridin-4-yl)methyl)-5-(3-(4-(trifluoromethoxy)phenyl)isoxazol-5-yl)pyridin-2(1H)-one]", "IC50": "< 100"},
      {"smiles": "CNS(=O)(=O)c1ccc(-c2nc(-c3ccc(=O)n(Cc4cccc(OCCOC)c4)c3)no2)cc1", "note": "[Example 199, 4-[3-(1-{[3-(2-methoxyethoxy)phenyl]methyl}-6-oxo-1,6-dihydropyridin-3-yl)-1,2,4-oxadiazol-5-yl]-N-methylbenzene-1-sulfonamide]", "IC50": "100 to 1000"},
      {"smiles": "COCCOc1cccc(Cn2cc(-c3nnc(-c4ccc(S(=O)(=O)C(F)(F)F)cc4)o3)ccc2=O)c1", "note": "[Example 258, 1-{[3-(2-methoxyethoxy)phenyl]methyl}-5-[5-(4-trifluoromethanesulfonylphenyl)-1,3,4-oxadiazol-2-yl]-1,2-dihydropyridin-2-one]", "IC50": "100 to 1000"},
      {"smiles": "COCCOc1cccc(Cn2cc(-c3noc(-c4ccc(COC)cc4)n3)ccc2=O)c1", "note": "[Example 227, 1-{[3-(2-methoxyethoxy)phenyl]methyl}-5-{5-[4-(methoxymethyl)phenyl]-1,2,4-oxadiazol-3-yl}-1,2-dihydropyridin-2-one]", "IC50": "< 100"},
      {"smiles": "COCCOc1cccc(Cn2cc(-c3noc(-c4cnc(OCCOC)nc4)n3)ccc2=O)c1", "note": "[Example 239, 1-{[3-(2-methoxyethoxy)phenyl]methyl}-5-{5-[2-(2-methoxyethoxy)pyrimidin-5-yl]-1,2,4-oxadiazol-3-yl}-1,2-dihydropyridin-2-one]", "IC50": "100 to 1000"},
      {"smiles": "O=c1ccc(-c2nc(-c3ccc(OC(F)(F)F)cc3)no2)cn1Cc1cccc(N2CCNCC2)c1", "note": "[Example 59, 1-(3-(piperazin-1-yl)benzyl)-5-(3-(4-(trifluoromethoxy)phenyl)-1,2,4-oxadiazol-5-yl)pyridin-2(1H)-one]", "IC50": "< 100"},
      {"smiles": "CN(C)C(=O)c1cccc(Cn2cc(-c3nc(-c4ccc(OC(F)(F)F)cc4)no3)ccc2=O)c1", "note": "[Example 134, N,N-dimethyl-3-[(2-oxo-5-{3-[4-(trifluoromethoxy)phenyl]-1,2,4-oxadiazol-5-yl}-1,2-dihydropyridin-1-yl)methyl]benzamide]", "IC50": "< 100"},
      {"smiles": "CS(=O)(=O)CCCOc1cccc(Cn2cc(-c3nnc(-c4ccc(S(=O)(=O)C(F)(F)F)cc4)o3)ccc2=O)c1", "note": "[Example 259, 1-{[3-(3-methanesulfonylpropoxy)phenyl]methyl}-5-[5-(4-trifluoromethanesulfonylphenyl)-1,3,4-oxadiazol-2-yl]-1,2-dihydropyridin-2-one]", "IC50": "< 100"},
      {"smiles": "O=c1ccc(-c2nc(-c3ccc(OC(F)(F)F)cc3)no2)nn1Cc1ccnc(N2CCOCC2)c1", "note": "[Example 12, 2-((2-Morpholinopyridin-4-yl)methyl)-6-(3-(4-(trifluoromethoxy)phenyl)-1,2,4-oxadiazol-5-yl)pyridazin-3(2H)-one]", "IC50": "< 100"},
      {"smiles": "COCCOc1cccc(Cn2cc(-c3noc(-c4ccc(C5CCSCC5)cc4)n3)ccc2=O)c1", "note": "[Example 75, 1-(3-(2-Methoxyethoxy)benzyl)-5-(5-(4-(tetrahydro-2H-thiopyran-4-yl)phenyl)-1,2,4-oxadiazol-3-yl)pyridin-2(1H)-one]", "IC50": "< 100"},
      {"smiles": "COCCOc1cccc(Cn2cc(-c3noc(-c4ccc(C(C)(C)O)cc4)n3)ccc2=O)c1", "note": "[Example 73, 5-(5-(4-(2-Hydroxypropan-2-yl)phenyl)-1,2,4-oxadiazol-3-yl)-1-(3-(2-methoxyethoxy)benzyl)pyridin-2(1H)-one]", "IC50": "< 100"},
      {"smiles": "CN1CCN(C(=O)c2cc(Cn3nc(-c4nc(-c5ccc(OC(F)(F)F)cc5)no4)ccc3=O)ccc2F)CC1", "note": "[Example 130, 2-{[4-fluoro-3-(4-methylpiperazine-1-carbonyl)phenyl]methyl}-6-{3-[4-(trifluoromethoxy)phenyl]-1,2,4-oxadiazol-5-yl}-2,3-dihydropyridazin-3-one]", "IC50": "100 to 1000"},
      {"smiles": "CN1CCN(c2cccc(Cn3cc(-c4nc(-c5ccc(SC(F)(F)F)cc5)no4)ccc3=O)c2)CC1", "note": "[Example 185, 1-{[3-(4-methylpiperazin-1-yl)phenyl]methyl}-5-(3-{4-[(trifluoromethyl)sulfanyl]phenyl}-oxadiazol-5-yl)-1,2-dihydropyridin-2-one]", "IC50": "< 100"},
      {"smiles": "CC(C)Oc1ccc(-c2nnc(-c3ccc(=O)n(Cc4cccc(C(C)(C)O)c4)c3)o2)cc1", "note": "[Example 263, 1-{[3-(2-hydroxypropan-2-yl)phenyl]methyl}-5-{5-[4-(propan-2-yloxy)phenyl]-1,3,4-oxadiazol-2-yl}-1,2-dihydropyridin-2-one]", "IC50": "100 to 1000"},
      {"smiles": "C#CCCCC(=O)N1CCN(c2cccc(Cn3cc(-c4nc(-c5ccc(OC(F)(F)F)cc5)no4)ccc3=O)c2)CC1", "note": "[Example 180]", "IC50": "< 100"},
      {"smiles": "CN1CCN(c2cc(Cn3nc(C(=O)Nc4ccc(OC(F)(F)F)cc4)ccc3=O)ccn2)CC1", "note": "[Example 3, 1-(2-(4-Methylpiperazin-1-yl)pyridin-4-yl)methyl)-6-oxo-N-(4-(trifluoromethoxy)phenyl)-1,6-dihydropyridazine-3-carboxamide bis trifluoroacetate salt]", "IC50": "100 to 1000"},
      {"smiles": "CN1CCN(c2cccc(Cn3cc(-c4noc(-c5ccc(S(=O)(=O)C(F)(F)F)cc5)n4)ccc3=O)c2)CC1", "note": "[Example 188, 1-{[3-(4-methylpiperazin-1-yl)phenyl]methyl}-5-[5-(4-trifluoromethanesulfonylphenyl)-1,2,4-oxadiazol-3-yl]-1,2-dihydropyridin-2-one]", "IC50": "< 100"},
      {"smiles": "N#Cc1cccc(Cn2cc(-c3nc(-c4ccc(OC(F)(F)F)cc4)no3)ccc2=O)c1", "note": "[Example 122, 3-((2-oxo-5-(3-(4-(trifluoromethoxy)phenyl)-1,2,4-oxadiazol-5-yl)pyridin-1(2H)-yl)methyl)benzonitrile]", "IC50": "< 100"},
      {"smiles": "O=c1ccc(-c2nc(-c3ccc(OC(F)(F)F)cc3)no2)cn1Cc1cccc(CO)c1", "note": "[Example 43, 1-{[3-(Hydroxymethyl)phenyl]methyl}-5-{3-[4-(trifluoromethoxy)phenyl]-1,2,4-oxadiazol-5-yl}-1,2-dihydropyridin-2-one]", "IC50": "< 100"},
      {"smiles": "CC(=O)SCc1cccc(Cn2cc(-c3nc(-c4ccc(OC(F)(F)F)cc4)no3)ccc2=O)c1", "note": "[Example 44, 1-({3-[(Acetylsulfanyl)methyl]phenyl}methyl)-5-{3-[4-(trifluoromethoxy)phenyl]-1,2,4-oxadiazol-5-yl}-1,2-dihydropyridin-2-one]", "IC50": "< 100"},
      {"smiles": "COCCOc1cccc(Cn2cc(-c3noc(-c4ccc(C5=CCSCC5)cc4)n3)ccc2=O)c1", "note": "[Example 209, 5-{5-[4-(3,6-dihydro-2H-thiopyran-4-yl)phenyl]-1,2,4-oxadiazol-3-yl}-1-{[3-(2-methoxyethoxy)phenyl]methyl}-1,2-dihydropyridin-2-one]", "IC50": "< 100"},
      {"smiles": "CC(C)(C(=O)O)c1cccc(Cn2cc(-c3nc(-c4ccc(OC(F)(F)F)cc4)no3)ccc2=O)c1", "note": "[Example 36, 2-Methyl-2-{3-[(2-oxo-5-{3-[4-(trifluoromethoxy)phenyl]-1,2,4-oxadiazol-5-yl}-1,2-dihydropyridin-1-yl)methyl]phenyl}propanoic acid]", "IC50": "100 to 1000"}
    ]}
  ]
}
